Reference: patent US20250186431A1, “PHARMACEUTICAL COMPOSITION FOR RADIOTHERAPY, AND METHOD FOR TREATING SOLID CANCER USING SAME” (Kyoto University, priority 2022, published 2025)
Counter-ions that a name gives are not always drawn.

Columns and labels:
[1] = system: DNA double strand in OVCAR8 tumor spheroid; test: γH2AX assay of spheroids immediately after monochromatic X-ray irradiation; type: cell-based, Human
Description: For investigating the mechanism of how to destroy spheroids, spheroids were irradiated with a monochromatic X-ray for 30 minutes. Immediately after irradiation and before incubation, spheroids were subjected to γH2AX assay to confirm the state of a DNA double strand. In the γH2AX assay, if a double strand is cleaved, red fluorescence is emitted. The γH2AX assay was performed by use of a commercially available kit in accordance with the instructions attached thereto.

[2] = system: OVCAR8 tumor spheroid (hypoxic or normoxic); test: Destruction of hypoxic spheroid by monochromatic X-ray irradiation; type: cell-based, Human; details: then monochromatic X-ray
Description: The iodine atom-containing Hoechst compound (I-Hoechst) and spheroids were incubated (24 hours) in the same manner as in Test Example 3 to obtain spheroids having the Hoechst compound taken up therein. The spheroids were put in tubes and further incubated in a hypoxic (0% oxygen concentration) condition for further 18 hours. As a control, spheroids were incubated in a normal (not hypoxic) oxygen condition (20% oxygen concentration) in the same manner for 18 hours. After incubation in a hypoxic (or normoxic) condition, the spheroids were irradiated with monochromatic X-rays in the same manner as in Test Example 5. In the Test, whether spheroids are placed in a hypoxic condition was checked by inducing expression of a hypoxic marker, HIF-1α. Note that, HIF-1α is a kind of a hypoxia inducible factor and measurable by a commercially available kit.
Furthermore, spheroids (nanoparticles carrying an iodine atom-containing Hoechst compound-spheroid) prepared in Test Example 8 are irradiated with monochromatic X-rays under a hypoxic condition in the same manner as in Test Example 7. It is confirmed that hypoxic spheroids irradiated with the X-rays are destroyed.

OVCAR8 tumor spheroid [3] = test: Destruction of spheroid by monochromatic X-ray irradiation; type: cell-based, Human; details: 30 minutes, then 3 days incubation
Description: Irradiation of monochromatic X-rays was performed in beamline BL14B1 of large-scale synchrotron radiation facility SPring-8 located in Sayo-cho, Sayo-gun, Hyogo Prefecture, Japan. […] First, white X-ray generated from the bending magnet of SPring-8 was guided to an exit-position fixed two-crystal monochromator having silicon 311 crystal to generate a monoenergetic X-ray beam (monochromatic X-ray). SPring-8 storage ring was operated in the top-up mode under which fluctuation of X-ray intensity over time can be ignored due to a constant storage current of 100 mA to perform an irradiation experiment. The shape of the X-ray beam was controlled by using horizontal and vertical transport channel (TC) slits. The size of the X-ray beam at the position of a sample was 0.7 mm in height×1.4 mm in width. This is large enough to cover a spheroid having a size of 0.5 mm×0.5 mm. During experiments, the intensity of the X-ray beam was monitored in two ion chambers arranged on the optical axis. The X-ray transmitted was monitored by a CCD camera to control the position of the sample. […] Spheroids are placed at the bottom of tubes put in a sample rack.
The iodine atom-containing Hoechst compound (I-Hoechst) and spheroids were incubated (24 hours) in the same manner as in Test Example 3 to obtain spheroids having the Hoechst compound taken up. The spheroids were put in tubes and the tubes were plated at the sample rack of the X-ray irradiation device. Since the sample rack is designed such that samples can be moved on the XYZ stage, the experimenter can perform X-ray irradiation by moving samples on the optical axis without entering the experimental hutch. After completion of X-ray irradiation to a sample, the sample rack is designed to automatically move such that the irradiation position faces the next sample. Thus, a series of X-ray irradiation can be automatically performed (see, FIG. 6). Before irradiation, the position of a sample was confirmed by an optical microscope and a laser, and monitored by a CCD camera during X-ray irradiation. Note that, since the energy of X-ray is extremely high, observation of spheroids and an absorption control of a tube by the CCD camera was not made. A refractive X-ray image of a tube was obtained to monitor of a sample position. The photon flux at a position of a sample was calculated as 3.9×10^8 (photons/second) by use of the SPECTRA code.
The spheroids prepared as mentioned above were irradiated with a monochromatic X-ray (energy: 33.0 key, 33.2 keV or 33.4 keV) for 30 minutes. After X-ray radiation, spheroids were incubated in a CO2 incubator at 37° C. for 3 days and thereafter, observed by a confocal microscope (visible light and fluorescent light). […]

[4] = system: Human ovarian cancer cell OVCAR8 expressing GFP; test: Uptake by cancer cell, confocal microscopy; type: cell-based; details: 50 nmol/mL, 24 hours, 37° C.
Description: Human ovarian cancer cell OVCAR8 expressing green fluorescent protein (GFP) was used as a cancer cell. Cancer cell OVCAR8 was cultured on RPMI1640 medium containing 10% inactivated FBS and 1% penicillin/streptomycin in a culture dish having a diameter of 100 mm. Furthermore, the iodine atom-containing Hoechst compound (I-Hoechst-3HCl) (0.1 mg, 151.57 nmol) was dissolved in water (0.15 mL) to prepare a solution (the amount of Hoechst compound: 1 μmol/mL) containing the iodine atom-containing Hoechst compound. The solution was added to the culture solution such that the amount of the Hoechst compound in the culture solution became 50 nmol/mL and incubated in a CO2 incubator at 37° C. for 24 hours. Thereafter, the culture medium was removed and the cells were washed. The cells were observed by a confocal microscope. Cell nuclei can be detected based on staining with a Hoechst compound (blue color emission) and expression of GFP (green fluorescence). […]
Nanoparticles (IH-BPMO) carrying an iodine atom-containing Hoechst (I-Hoechst) were added to a medium containing cancer cells and culture was performed for 24 hours in accordance with Test Example 8. Fluorescence was observed by a microscope.

OVCAR8 tumor spheroid [5] = test: Uptake into tumor spheroid, confocal microscopy; type: cell-based, Human; details: 5 nmol/mL
Description: Human ovarian cancer cell OVCAR8 expressing green fluorescent protein (GFP) was used as a cancer cell. A tumor spheroid (hereinafter also referred to as “spheroid”) was formed from the cancer cell. Cancer cell OVCAR8 was cultured on RPMI1640 medium containing 10% inactivated FBS and 1% penicillin/streptomycin in a culture dish of 100 mm in diameter. For forming spheroids, […] of OVCAR8 cells were seeded in PrimeSurface96U culture plate (MS-9096U, Sumitomo Bakelite Co., Ltd). The OVCAR8 cells were cultured in a CO2 incubator at 37° C. for 7 days. Since the cells were not able to attach to a hydrophilic plate surface, the cells came together at the bottom of a well and formed three-dimensional spheroids at the bottom. In this manner, spheroids (estimated number of cells: approximately 100,000) of 500 μm in diameter were obtained.
Subsequently, an iodine atom-containing Hoechst compound (I-Hoechst-3HCl) (0.1 mg, 151.57 nmol) was dissolved in water (1.5 mL) to prepare a solution containing the iodine atom-containing Hoechst compound (amount of the Hoechst compound: 100 nmol/mL). […]
For the horizontal row, images in the column indicated by “GFP” are the observation results based on a fluorescence (green), whereas images in the column indicated by “I-Hoechst” are observation results based on staining (blue) with the Hoechst compound. […]

[6] = system: ovarian cancer OVCAR8 cells; test: Cytotoxicity test by LDH (lactate dehydrogenase) method; type: cell-based, Human
Description: A Hoechst compound (normal compound containing no iodine atom) is generally considered to have low toxicity. The following experiment was carried out to confirm that iodine atom-containing Hoechst compounds have low toxicity. Iodine atom-containing Hoechst compounds (I-Hoechst, 3HCl) different in addition amount were each incubated with ovarian cancer OVCAR8 cells. Cytotoxicity was investigated by a commercially available kit in accordance with LDH (lactate dehydrogenase) method.
Furthermore, the safety of the nanoparticles carrying an iodine atom-containing Hoechst compound is confirmed in the same manner as in Test Example 6.

With `CN1CCN(c2ccc3nc(-c4ccc5nc(-c6ccc(O)c(I)c6)[nH]c5c4)[nH]c3c2)CC1` [Hoechst 33342 analog 2] the “DNA double strand break (γH2AX red fluorescence)” value (shortened to “DNA double strand break”) ([1]; 33.0 keV, 30 minutes, immediately after irradiation) was “no DNA double strands were broken”, the “DNA double strand break” value ([1]; 33.2 keV, 30 minutes, immediately after irradiation) was “a DNA double strand was broken” and the “DNA double strand break” value ([1]; 33.4 keV, 30 minutes, immediately after irradiation) was “a DNA double strand was broken although the degree of double strand break is lower than the 33.2-keV monochromatic X-ray”. For the same compound, the “DNA double strand break” value ([1]; no irradiation with monochromatic X-ray) was “no DNA double strands were broken”, the “Spheroid destruction in hypoxic condition” value ([2]; 0% oxygen 18 hours) was “effectively destroyed” and the “Spheroid destruction in normoxia condition” value ([2]; 20% oxygen 18 hours) was “effectively destroyed”. The Spheroid destruction (OVCAR8 tumor spheroid [3]; monochromatic X-ray 33.0 keV) was “spheroids were not destroyed”, the Spheroid destruction (OVCAR8 tumor spheroid [3]; monochromatic X-ray 33.2 keV) was “destroyed into pieces” and the Spheroid destruction (OVCAR8 tumor spheroid [3]; monochromatic X-ray 33.4 keV) was “spheroids were destroyed even though the degree of destruction was lower than the 33.2-keV monochromatic X-ray”.

With `CN1CCN(c2ccc3nc(-c4ccc5nc(-c6ccc(O)c(I)c6)[nH]c5c4)[nH]c3c2)CC1` [I-Hoechst-3HCl, Hoechst 33342 analog 2 trihydrochloride] the “Uptake and localization in cancer cell” value [4] was “taken up within the cell, transported to the nucleus of the cell and localized in DNA”, the “Permeation into interior of spheroid” value (OVCAR8 tumor spheroid [5]; confocal microscope) was “reaches not only cells close to the surface of a spheroid but also cells located at the center of the spheroid” and the “Uptake and distribution in spheroids” value (OVCAR8 tumor spheroid [5]; incubation 1, 24, 96 hours) was “efficiently taken up by spheroids and uniformly distributed over the entire spheroids 24 hours later”. The “Concentration at which no toxicity was shown (LDH method)” value [6] was ≤ 20 µM.

In the case of `CN1CCN(c2ccc3nc(-c4ccc5nc(-c6ccc(O)cc6)[nH]c5c4)[nH]c3c2)CC1` [Hoechst 33258, reference compound], the Spheroid destruction (OVCAR8 tumor spheroid [3]; any of the monochromatic X-rays (33.0, 33.2 or 33.4 keV)) was “spheroids were not destroyed”.
